Laboratory results from ChEMBL document CHEMBL5120783, “Procyanidins and Phlobatannins from the Twigs of Rosa multiflora and Their Neuroprotective Activity” (J Nat Prod, 2022).
pIC50: −log10 of the molar value.

Assays:
[1] = Cytotoxicity against mouse BV-2 cells assessed as cell viability at 25 uM by MTT assay; assay type: toxicity, cell-based; details: read-out: Activity
BV-2 = experiment: Anti-neuroinflammatory activity in mouse BV-2 cells assessed as inhibition of LPS-induced NO production; assay type: functional, cell-based
C6 = experiment: Neuroprotective activity in rat C6 cells assessed as NGF secretion level at 25 uM measured after 24 hrs by ELISA; assay type: functional
[2] = Cytotoxicity against rat C6 cells assessed as cell viability at 25 uM by MTT assay; assay type: toxicity, cell-based; details: read-out: Activity

Row | SMILES | pIC50 (BV-2) | viability at 25 µM [1] | Activity (C6) | viability at 25 µM [2]
1 | OC[C@H]1O[C@@H](O[C@H]2c3ccc(O)cc3O[C@@H](c3ccc(O)cc3)[C@@H]2O)[C@H](O)[C@@H](O)[C@@H]1O | 4.29 | 98.9% | 103.8% | 102%
2 | CCCCC/C=C/C(=O)CCc1ccc(O)c(OC)c1 [SHOGAOL] | – | – | 118.5% | 116%

More lines, main results first:

Row | pIC50 (BV-2) | SMILES | viability at 25 µM [1] | Activity (C6) | viability at 25 µM [2]
3 | 4.43 | COc1cc([C@@H]2Oc3cc(CCCO)cc(O)c3O[C@H]2CO)ccc1O | 92.4% | – | –
4 | 4.57 | CNC(=N)NCCC[C@H](N)C(=O)O [TILARGININE] | 104% | – | –
5 | 4.30 | COc1cc([C@@H]2Oc3cc(CCCO)cc(O)c3O[C@H]2CO)ccc1O[C@@H]1O[C@H](CO)[C@@H](O)[C@H](O)[C@H]1O | 95.9% | 107.6% | 99.2%
